Reference: patent US9340590B2 (priority 2011, dated 2016)
Read-outs that look alike come from different tables or passages of the source. Positions of bridges follow the written chain, without caps; N, C: chain ends. Non-standard residues stand in square brackets, D forms with d. Residues, ends and D or L forms follow the SMILES beside them. 1Nal = N[C@@H](Cc1cccc2ccccc12)C(=O)O

Experiments:
Assay in all cases: cell-based
hNav1.7 = hNav1.7 (Homo sapiens, UniProt Q15858); assay type: cell-based; conditions: IonWorks Quattro
hNav1.7, sequence (Q15858 whole entry, looked up): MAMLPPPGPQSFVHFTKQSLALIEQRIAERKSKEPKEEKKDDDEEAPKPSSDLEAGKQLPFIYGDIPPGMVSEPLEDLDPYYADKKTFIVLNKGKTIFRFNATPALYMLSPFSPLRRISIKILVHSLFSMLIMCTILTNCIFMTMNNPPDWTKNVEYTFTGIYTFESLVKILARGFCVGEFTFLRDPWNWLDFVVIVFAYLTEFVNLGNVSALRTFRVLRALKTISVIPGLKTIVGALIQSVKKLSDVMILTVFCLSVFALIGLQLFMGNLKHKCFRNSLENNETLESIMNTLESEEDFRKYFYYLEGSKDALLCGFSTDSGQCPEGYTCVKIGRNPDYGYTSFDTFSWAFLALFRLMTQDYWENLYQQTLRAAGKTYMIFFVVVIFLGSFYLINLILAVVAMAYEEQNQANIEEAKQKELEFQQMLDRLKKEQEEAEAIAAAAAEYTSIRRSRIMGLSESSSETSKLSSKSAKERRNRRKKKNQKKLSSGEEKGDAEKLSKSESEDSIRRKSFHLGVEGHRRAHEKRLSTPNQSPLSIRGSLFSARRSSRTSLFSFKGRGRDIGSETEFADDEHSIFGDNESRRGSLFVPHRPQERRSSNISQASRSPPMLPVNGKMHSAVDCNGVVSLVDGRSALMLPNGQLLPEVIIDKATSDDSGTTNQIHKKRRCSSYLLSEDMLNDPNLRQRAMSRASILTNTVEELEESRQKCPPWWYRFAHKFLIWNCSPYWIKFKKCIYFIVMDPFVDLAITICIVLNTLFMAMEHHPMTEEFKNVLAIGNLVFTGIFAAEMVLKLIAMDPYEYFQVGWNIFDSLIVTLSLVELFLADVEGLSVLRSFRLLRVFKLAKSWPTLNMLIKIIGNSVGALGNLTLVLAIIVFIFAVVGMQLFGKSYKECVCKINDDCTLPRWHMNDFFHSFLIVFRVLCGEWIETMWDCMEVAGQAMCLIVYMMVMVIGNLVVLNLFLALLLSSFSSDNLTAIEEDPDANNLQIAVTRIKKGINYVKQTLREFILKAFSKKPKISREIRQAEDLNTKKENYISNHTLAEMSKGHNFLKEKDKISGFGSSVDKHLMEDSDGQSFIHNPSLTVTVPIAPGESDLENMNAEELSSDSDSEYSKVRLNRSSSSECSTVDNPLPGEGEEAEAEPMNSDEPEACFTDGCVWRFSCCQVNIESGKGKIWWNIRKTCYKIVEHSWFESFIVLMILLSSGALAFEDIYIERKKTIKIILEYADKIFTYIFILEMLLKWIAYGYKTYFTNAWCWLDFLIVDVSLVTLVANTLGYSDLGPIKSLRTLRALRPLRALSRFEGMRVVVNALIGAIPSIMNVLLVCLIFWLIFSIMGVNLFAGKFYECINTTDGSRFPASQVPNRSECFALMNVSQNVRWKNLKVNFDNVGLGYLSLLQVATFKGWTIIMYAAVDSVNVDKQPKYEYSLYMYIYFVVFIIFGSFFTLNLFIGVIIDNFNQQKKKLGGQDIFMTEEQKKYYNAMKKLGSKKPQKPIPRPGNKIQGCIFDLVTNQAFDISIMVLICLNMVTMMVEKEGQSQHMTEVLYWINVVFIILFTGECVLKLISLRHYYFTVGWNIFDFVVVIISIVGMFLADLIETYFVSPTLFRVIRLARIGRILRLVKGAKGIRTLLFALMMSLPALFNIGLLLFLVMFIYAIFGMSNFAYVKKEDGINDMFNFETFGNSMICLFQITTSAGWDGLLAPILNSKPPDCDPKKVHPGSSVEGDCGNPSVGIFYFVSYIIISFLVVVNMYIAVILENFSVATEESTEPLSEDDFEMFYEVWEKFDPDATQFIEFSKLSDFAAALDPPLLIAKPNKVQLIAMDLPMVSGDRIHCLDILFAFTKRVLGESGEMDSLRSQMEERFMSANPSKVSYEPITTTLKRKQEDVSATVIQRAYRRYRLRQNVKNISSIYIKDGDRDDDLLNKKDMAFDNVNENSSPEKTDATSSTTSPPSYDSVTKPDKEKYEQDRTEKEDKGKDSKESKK

hNav1.5 = hNav1.5 (Homo sapiens, UniProt Q14524)
hNav1.3 = hNav1.3 (Homo sapiens, UniProt Q9NY46); conditions: IonWorks Quattro, read-out: IWQ Use Nav1.3
hNav1.3, sequence (Q9NY46 whole entry, looked up): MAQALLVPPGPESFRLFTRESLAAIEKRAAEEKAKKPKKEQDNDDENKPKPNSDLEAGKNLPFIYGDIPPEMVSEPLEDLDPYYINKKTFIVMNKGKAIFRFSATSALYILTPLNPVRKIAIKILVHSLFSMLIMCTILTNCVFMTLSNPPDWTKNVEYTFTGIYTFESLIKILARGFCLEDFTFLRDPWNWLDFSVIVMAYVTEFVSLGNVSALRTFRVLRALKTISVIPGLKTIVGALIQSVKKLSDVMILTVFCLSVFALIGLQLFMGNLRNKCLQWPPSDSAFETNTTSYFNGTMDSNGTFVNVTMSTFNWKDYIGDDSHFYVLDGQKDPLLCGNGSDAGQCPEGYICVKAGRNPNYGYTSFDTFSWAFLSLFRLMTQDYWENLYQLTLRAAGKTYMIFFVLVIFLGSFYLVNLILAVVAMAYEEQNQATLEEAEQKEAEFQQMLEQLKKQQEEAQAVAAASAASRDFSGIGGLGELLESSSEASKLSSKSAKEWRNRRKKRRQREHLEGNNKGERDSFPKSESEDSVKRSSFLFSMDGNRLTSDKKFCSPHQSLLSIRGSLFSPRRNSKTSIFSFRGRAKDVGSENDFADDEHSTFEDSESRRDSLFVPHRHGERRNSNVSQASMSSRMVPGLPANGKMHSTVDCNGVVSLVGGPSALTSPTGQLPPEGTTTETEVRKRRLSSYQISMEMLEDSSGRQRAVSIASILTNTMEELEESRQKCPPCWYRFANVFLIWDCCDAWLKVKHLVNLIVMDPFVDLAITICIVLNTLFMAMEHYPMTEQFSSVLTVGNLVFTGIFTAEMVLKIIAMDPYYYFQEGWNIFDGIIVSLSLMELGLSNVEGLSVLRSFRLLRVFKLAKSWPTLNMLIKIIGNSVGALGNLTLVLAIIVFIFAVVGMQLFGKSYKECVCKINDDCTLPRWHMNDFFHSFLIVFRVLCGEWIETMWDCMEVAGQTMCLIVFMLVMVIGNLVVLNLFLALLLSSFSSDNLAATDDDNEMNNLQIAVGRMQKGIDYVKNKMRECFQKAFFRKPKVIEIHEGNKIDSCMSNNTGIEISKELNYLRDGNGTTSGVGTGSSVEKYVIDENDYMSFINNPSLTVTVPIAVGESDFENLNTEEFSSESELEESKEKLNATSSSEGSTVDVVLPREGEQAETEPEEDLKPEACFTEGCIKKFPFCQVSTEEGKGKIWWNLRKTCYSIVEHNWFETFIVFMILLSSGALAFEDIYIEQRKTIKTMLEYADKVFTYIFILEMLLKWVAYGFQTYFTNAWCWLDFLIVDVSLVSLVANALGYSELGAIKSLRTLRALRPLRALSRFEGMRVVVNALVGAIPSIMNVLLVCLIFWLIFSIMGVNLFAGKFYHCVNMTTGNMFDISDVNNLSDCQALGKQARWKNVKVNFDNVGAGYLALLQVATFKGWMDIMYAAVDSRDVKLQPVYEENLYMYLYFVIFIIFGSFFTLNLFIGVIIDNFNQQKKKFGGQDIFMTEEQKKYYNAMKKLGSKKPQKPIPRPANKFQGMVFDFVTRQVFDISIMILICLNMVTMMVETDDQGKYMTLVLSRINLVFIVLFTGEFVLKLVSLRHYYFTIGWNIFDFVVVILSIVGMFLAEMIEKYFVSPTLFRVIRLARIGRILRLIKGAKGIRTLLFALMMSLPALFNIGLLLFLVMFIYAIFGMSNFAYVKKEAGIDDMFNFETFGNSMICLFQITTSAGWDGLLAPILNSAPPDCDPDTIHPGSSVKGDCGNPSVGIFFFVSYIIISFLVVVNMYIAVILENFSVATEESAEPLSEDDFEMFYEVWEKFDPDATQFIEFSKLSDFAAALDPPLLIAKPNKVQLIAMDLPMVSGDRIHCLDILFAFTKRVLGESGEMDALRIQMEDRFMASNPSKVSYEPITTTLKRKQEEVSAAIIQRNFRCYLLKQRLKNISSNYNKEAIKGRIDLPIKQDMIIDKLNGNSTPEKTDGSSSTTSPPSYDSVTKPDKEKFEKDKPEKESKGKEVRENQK

[1] = use-dependent, […], read-out: IWQ Use Nav1.7 (μm)
[2] = use-dependent block, hNav1.7, read-out: IWQ Use Nav1.7
[3] = IonWorks Quattro, use-dependent block, hNav1.5, read-out: IWQ Use Nav1.5

| Compound | IC50 (hNav1.7; [1]) [nM] | IC50 (hNav1.5; IonWorks Quattro, use-dependent, […], read-out: IWQ Use Nav1.5) [µM] | IC50 (hNav1.3; use-dependent, […]) [nM] | IC50 (hNav1.5; IWQ Use Nav1.5 (μM)) [µM] | IC50 (hNav1.7; [2]) [nM] | IC50 (hNav1.5; [3]) [µM] | IC50 (hNav1.3; use-dependent block, hNav1.3) [nM] |
| --- | --- | --- | --- | --- | --- | --- | --- |
| CC[C@H](C)[C@@H]1NC(=O)[C@@H]2CSSC[C@@H]3NC(=O)[C@H](C(C)C)NC(=O)[C@H](CC(C)C)NC(=O)[C@H](CC(N)=O)NC(=O)[C@@H]4CCCN4C(=O)[C@H](CCCNC(=N)N)NC(=O)[C@H](CSSC[C@H](NC(=O)[C@@H](N)CC(=O)O)C(=O)N[C@@H](CC(C)C)C(=O)NCC(=O)N[C@@H](Cc4ccccc4)C(=O)N[C@@H](CCSC)C(=O)N[C@@H](CCCNC(=N)N)C(=O)N[C@@H](CCCCN)C(=O)N2)NC(=O)[C@H](CSSC[C@@H](C(=O)N[C@@H](CCCCN)C(=O)N[C@@H](Cc2ccc(O)cc2)C(=O)N[C@H](C(=O)N[C@@H](Cc2ccccc2)C(=O)N[C@@H](Cc2ccccn2)C(N)=O)C(C)C)NC(=O)[C@H](Cc2c[nH]c4ccccc24)NC(=O)[C@H](CCCCN)NC(=O)[C@H](Cc2c[nH]cn2)NC(=O)[C@H]([C@@H](C)O)NC(=O)[C@H](CCCNC(=N)N)NC(=O)[C@H](CO)NC3=O)NC(=O)[C@H](CCCCN)NC(=O)[C@H](CC(=O)O)NC(=O)[C@H](CC(N)=O)NC(=O)[C@H](CC(=O)O)NC(=O)[C@@H]2CCCN2C1=O [compound 414] | 260 | 9.29 | 630 |  |  |  |  |
| CC[C@H](C)[C@@H]1NC(=O)[C@@H]2CSSC[C@@H]3NC(=O)[C@H](C(C)C)NC(=O)[C@H](CC(C)C)NC(=O)[C@H](CC(N)=O)NC(=O)[C@@H]4CCCN4C(=O)[C@H](CCCNC(=N)N)NC(=O)[C@H](CSSC[C@H](NC(=O)[C@@H](N)CC(=O)O)C(=O)N[C@@H](CC(C)C)C(=O)NCC(=O)N[C@@H](Cc4ccccc4)C(=O)N[C@@H](CCSC)C(=O)N[C@@H](CCCNC(=N)N)C(=O)N[C@@H](CCCCN)C(=O)N2)NC(=O)[C@H](CSSC[C@@H](C(=O)N[C@@H](CCCCN)C(N)=O)NC(=O)[C@H](Cc2c[nH]c4ccccc24)NC(=O)[C@H](CCCCN)NC(=O)[C@H](Cc2cnc[nH]2)NC(=O)[C@H]([C@@H](C)O)NC(=O)[C@H](CCCNC(=N)N)NC(=O)[C@H](CO)NC3=O)NC(=O)[C@H](CCCCN)NC(=O)[C@H](CC(=O)O)NC(=O)[C@H](CC(N)=O)NC(=O)[C@H](CC(=O)O)NC(=O)[C@@H]2CCCN2C1=O [compound 417] (H-DCLGFMRKCIPDNDKCCRPNLVCSRTHKWCK-NH2; disulfide 2-17, 9-23, 16-30) | 18300 |  | 9090 | 11.9 |  |  |  |
| CC[C@H](C)[C@@H]1NC(=O)[C@@H]2CSSC[C@@H]3NC(=O)[C@H](C(C)C)NC(=O)[C@H](CC(C)C)NC(=O)[C@H](CC(N)=O)NC(=O)[C@@H]4CCCN4C(=O)[C@H](CCCNC(=N)N)NC(=O)[C@H](CSSC[C@H](NC(=O)[C@@H](N)CC(=O)O)C(=O)N[C@@H](CC(C)C)C(=O)NCC(=O)N[C@@H](C)C(=O)N[C@@H](CCSC)C(=O)N[C@@H](CCCNC(=N)N)C(=O)N[C@@H](CCCCN)C(=O)N2)NC(=O)[C@H](CSSC[C@@H](C(=O)N[C@@H](CCCCN)C(=O)N[C@@H](Cc2ccc(O)cc2)C(=O)N[C@@H](CCC(=O)O)C(=O)N[C@@H](Cc2ccccc2)C(N)=O)NC(=O)[C@H](Cc2c[nH]c4ccccc24)NC(=O)[C@H](CCCCN)NC(=O)[C@H](Cc2c[nH]cn2)NC(=O)[C@H]([C@@H](C)O)NC(=O)[C@H](CCCNC(=N)N)NC(=O)[C@H](CO)NC3=O)NC(=O)[C@H](CCCCN)NC(=O)[C@H](CC(=O)O)NC(=O)[C@H](CC(N)=O)NC(=O)[C@H](CC(=O)O)NC(=O)[C@@H]2CCCN2C1=O [compound 419] (H-DCLGAMRKCIPDNDKCCRPNLVCSRTHKWCKYEF-NH2; disulfide 2-17, 9-23, 16-30) |  |  |  |  | 4000 | 9.04 | 3580 |
| CC[C@H](C)[C@@H]1NC(=O)[C@@H]2CSSC[C@@H]3NC(=O)[C@H](C(C)C)NC(=O)[C@H](CC(C)C)NC(=O)[C@H](CC(N)=O)NC(=O)[C@@H]4CCCN4C(=O)[C@H](CCCNC(=N)N)NC(=O)[C@H](CSSC[C@H](NC(=O)[C@@H](N)CC(=O)O)C(=O)N[C@@H](CC(C)C)C(=O)NCC(=O)N[C@@H](C)C(=O)N[C@@H](CCSC)C(=O)N[C@@H](CCCNC(=N)N)C(=O)N[C@@H](CCCCN)C(=O)N2)NC(=O)[C@H](CSSC[C@@H](C(=O)N[C@@H](CCCCN)C(=O)N[C@@H](Cc2ccc(O)cc2)C(=O)N[C@@H](Cc2cccc4ccccc24)C(=O)N[C@@H](Cc2ccccc2)C(N)=O)NC(=O)[C@H](Cc2c[nH]c4ccccc24)NC(=O)[C@H](CCCNC(=N)N)NC(=O)[C@H](Cc2c[nH]cn2)NC(=O)[C@H]([C@@H](C)O)NC(=O)[C@H](CCCNC(=N)N)NC(=O)[C@H](CO)NC3=O)NC(=O)[C@H](CCCCN)NC(=O)[C@H](CC(=O)O)NC(=O)[C@H](CC(N)=O)NC(=O)[C@H](CC(=O)O)NC(=O)[C@@H]2CCCN2C1=O [compound 420] (H-DCLGAMRKCIPDNDKCCRPNLVCSRTHRWCKY[1Nal]F-NH2; disulfide 2-17, 9-23, 16-30) |  |  |  |  | 200 | 7.5 | 320 |
| CC[C@H](C)[C@@H]1NC(=O)[C@@H]2CSSC[C@@H]3NC(=O)[C@H](C(C)C)NC(=O)[C@H](CC(C)C)NC(=O)[C@H](Cc4c[nH]c5ccccc45)NC(=O)[C@@H]4CCCN4C(=O)[C@H](CCCNC(=N)N)NC(=O)[C@H](CSSC[C@H](NC(=O)[C@@H](N)CC(=O)O)C(=O)N[C@@H](CC(C)C)C(=O)NCC(=O)N[C@@H](C)C(=O)N[C@@H](CCSC)C(=O)N[C@@H](CCCNC(=N)N)C(=O)N[C@@H](CCCCN)C(=O)N2)NC(=O)[C@H](CSSC[C@@H](C(=O)N[C@@H](CCCCN)C(=O)N[C@@H](Cc2ccc(O)cc2)C(=O)N[C@H](C(=O)N[C@@H](Cc2ccccc2)C(N)=O)C(C)C)NC(=O)[C@H](Cc2c[nH]c4ccccc24)NC(=O)[C@H](CCCCN)NC(=O)[C@H](Cc2c[nH]cn2)NC(=O)[C@H]([C@@H](C)O)NC(=O)[C@H](CCCNC(=N)N)NC(=O)[C@H](CO)NC3=O)NC(=O)[C@H](CCCCN)NC(=O)[C@H](CC(=O)O)NC(=O)[C@H](CC(N)=O)NC(=O)[C@H](CC(=O)O)NC(=O)[C@@H]2CCCN2C1=O [compound 422] (H-DCLGAMRKCIPDNDKCCRPWLVCSRTHKWCKYVF-NH2; disulfide 2-17, 9-23, 16-30) |  |  |  |  | 280 | > 5 | 390 |
| CC[C@H](C)[C@@H]1NC(=O)[C@@H]2CSSC[C@@H]3NC(=O)[C@H](C(C)C)NC(=O)[C@H](CC(C)C)NC(=O)[C@H](CC(N)=O)NC(=O)[C@@H]4CCCN4C(=O)[C@H](CCCNC(=N)N)NC(=O)[C@H](CSSC[C@H](NC(=O)[C@@H](N)CC(=O)O)C(=O)N[C@@H](CC(C)C)C(=O)NCC(=O)N[C@@H](C)C(=O)N[C@@H](CCSC)C(=O)N[C@@H](CCCNC(=N)N)C(=O)N[C@@H](CCCCN)C(=O)N2)NC(=O)[C@H](CSSC[C@@H](C(=O)N[C@@H](CCCCN)C(=O)N[C@@H](Cc2ccc(O)cc2)C(=O)N[C@H](C(=O)N[C@@H](Cc2ccccc2)C(N)=O)C(C)C)NC(=O)[C@H](Cc2c[nH]c4ccccc24)NC(=O)[C@H](CCCCN)NC(=O)[C@H](Cc2c[nH]cn2)NC(=O)[C@H]([C@@H](C)O)NC(=O)[C@H](CCCNC(=N)N)NC(=O)[C@H](CO)NC3=O)NC(=O)[C@H](CCCCN)NC(=O)[C@H](CC(=O)O)NC(=O)[C@H](CC(N)=O)NC(=O)[C@H](Cc2c[nH]c3ccccc23)NC(=O)[C@@H]2CCCN2C1=O [compound 423] (H-DCLGAMRKCIPWNDKCCRPNLVCSRTHKWCKYVF-NH2; disulfide 2-17, 9-23, 16-30) |  |  |  |  | 430 | > 5 | 1090 |
| CC[C@H](C)[C@@H]1NC(=O)[C@@H]2CSSC[C@@H]3NC(=O)[C@H](C(C)C)NC(=O)[C@H](CC(C)C)NC(=O)[C@H](CC(N)=O)NC(=O)[C@@H]4CCCN4C(=O)[C@H](CCCNC(=N)N)NC(=O)[C@H](CSSC[C@H](NC(=O)[C@@H](N)CC(=O)O)C(=O)N[C@@H](CC(C)C)C(=O)N[C@@H](Cc4c[nH]c5ccccc45)C(=O)N[C@@H](C)C(=O)N[C@@H](CCSC)C(=O)N[C@@H](CCCNC(=N)N)C(=O)N[C@@H](CCCCN)C(=O)N2)NC(=O)[C@H](CSSC[C@@H](C(=O)N[C@@H](CCCCN)C(=O)N[C@@H](Cc2ccc(O)cc2)C(=O)N[C@H](C(=O)N[C@@H](Cc2ccccc2)C(N)=O)C(C)C)NC(=O)[C@H](Cc2c[nH]c4ccccc24)NC(=O)[C@H](CCCCN)NC(=O)[C@H](Cc2c[nH]cn2)NC(=O)[C@H]([C@@H](C)O)NC(=O)[C@H](CCCNC(=N)N)NC(=O)[C@H](CO)NC3=O)NC(=O)[C@H](CCCCN)NC(=O)[C@H](CC(=O)O)NC(=O)[C@H](CC(N)=O)NC(=O)[C@H](CC(=O)O)NC(=O)[C@@H]2CCCN2C1=O [compound 424] (H-DCLWAMRKCIPDNDKCCRPNLVCSRTHKWCKYVF-NH2; disulfide 2-17, 9-23, 16-30) |  |  |  |  | 490 | > 5 | 1170 |
| CC[C@H](C)[C@@H]1NC(=O)[C@@H]2CSSC[C@@H]3NC(=O)[C@H](C(C)C)NC(=O)[C@H](CC(C)C)NC(=O)[C@H](CC(N)=O)NC(=O)[C@@H]4CCCN4C(=O)[C@H](CCCNC(=N)N)NC(=O)[C@H](CSSC[C@H](NC(=O)[C@@H](N)CC(=O)O)C(=O)N[C@@H](CC(C)C)C(=O)NCC(=O)N[C@@H](C)C(=O)N[C@@H](CCSC)C(=O)N[C@@H](CCCNC(=N)N)C(=O)N[C@@H](CCCCN)C(=O)N2)NC(=O)[C@H](CSSC[C@@H](C(=O)N[C@@H](CCCCN)C(=O)N[C@@H](Cc2ccc(O)cc2)C(=O)N[C@@H](C)C(=O)N[C@@H](Cc2ccccc2)C(N)=O)NC(=O)[C@H](Cc2c[nH]c4ccccc24)NC(=O)[C@H](CCCCN)NC(=O)[C@H](Cc2c[nH]cn2)NC(=O)[C@H]([C@@H](C)O)NC(=O)[C@H](CCCNC(=N)N)NC(=O)[C@H](CO)NC3=O)NC(=O)[C@H](CCCCN)NC(=O)[C@H](CC(=O)O)NC(=O)[C@H](CC(N)=O)NC(=O)[C@H](CC(=O)O)NC(=O)[C@@H]2CCCN2C1=O [compound 426] (H-DCLGAMRKCIPDNDKCCRPNLVCSRTHKWCKYAF-NH2; disulfide 2-17, 9-23, 16-30) |  |  |  |  | 580 | > 5 | 1580 |
